# According to patent US20170246468A1, “METHODS AND SYSTEMS FOR CONTROLLING OR TUNING THE ELECTRIC FIELD GENERATED IN SKIN OR TISSUE DURING COLD PLASMA SKIN TREATMENTS” (EP Technologies LLC, priority 2016, published 2017):
# Tests used:
# [1] = transport through open pores in the SC of a plasma treated area; conditions: applied more than 5 minutes after plasma treatment
# [2] = plasmaporation-enhanced transdermal delivery across ex vivo porcine skin; type: in vitro ADME
# Excerpt: 27, 2013 and Sep. 29, 2013 incorporated herein. Others devices and techniques are described in U.S. Non-Provisional application Ser. No. 14/564,717 filed on Dec. 9, 2014, U.S. Non-Provisional application Ser. No. 14/610,467 filed on Jan. 30, 2015, and U.S. Non-Provisional application Ser. No. 14/967,512 filed on Dec. 14, 2015. All of these applications are incorporated by reference herein in their entirety.
Substance,transport through the SC when applied after 5 minutes [1],skin damage [2],time of transdermal delivery of topically applied molecules across skin with plasmaporation ([2]; topically applied)
Dextran [10 kDa Dextran],no longer passed through the SC,–,–
dextran,–,without creating skin damage,≤ 15 min
